As a reminder, the ED50 is the midpoint of the dose-response relation. A high value points to weaker potency.

The first assay has as its system male ICR mice. Description: MES test (anti-epilepsy activity), mice, oral (mMES po). Format: in vivo. Particulars: Mus musculus, injection amount 9 mg/kg, 3 mice, read-out: mMES(po) Protection %. The protocol:
Biological Experimental Example. 1: Measurement of Anti-Epilepsy Activity (MES-Test)
In the MES test (Ref., G. Villetti et al. Neuropharmacology 40(2001) 866-878), an electrical stimulus (mice: 50 mA, 60 Hz, 0.2 sec, and rats: 150 mA, 60 Hz, 0.2 sec in the test animal) supplied by an 11 A Shocker (IITC Life Science Company) was delivered through corneal electrodes. All mice or rats assigned to any electroshock at peak time were treated with each test compound sample which was dissolved in 20% tween 80 prepared by saline solvent applied orally before the test. […] Three doses of the test sample were administered orally to 9-18 animals (3-6 mice per dose) for evaluating the respective doses at which 50% of the animals were protected from seizure (ED50). The ED50 value (median effective close) was calculated by Litchfield and Wicoxon log-probit method which is a dose-response relationship. Experimental animals, male ICR mice and male SD rats, were purchased from OrientBio, Samtako, or Nara Biotech, Korea, and housed in cages (4-5 mice or 3 rats per cage) for 4-5 days. The range of mice body weight was between 19 and 25 grams and range of rats body weight was between 100 and 130 grams.
The obtained results are shown as mean±sem. The difference between the groups was statistically analyzed by ANOVA, and then further examined by Dunnett's test or Bonferroni test. If p is less than 0.05, it was determined that the difference between the groups had statistical significance.
The results of anti-epileptic activity of the sulfamate derivative compounds measured in the above Experimental Example are shown in the following Tables 4 and 5.
Turning to `NS(=O)(=O)OC[C@@H]1OC2(CCCC2)O[C@H]1c1ccccc1` [Example 110, ((2S, 3S)-3-phenyl-1,4-dioxaspiro[4,4]nonan-2-yl)methyl sulfamate], the responders at 9 mg/kg came out at 33.3%.

Still in this assay, the particulars now being: Mus musculus, injection amount 30 mg/kg, 3 mice, read-out: mMES(po) Protection %.
Consider `CC1(C)O[C@@H](COS(N)(=O)=O)[C@H](c2ccccc2)O1` [Example 106, ((4S, 5S)-5-phenyl-2,2-dimethyl-1,3-dioxolan-4-yl)methyl sulfamate], for which the responders at 30 mg/kg was determined as 100%.

Regarding `NS(=O)(=O)OC[C@@H]1OC2(CCCC2)O[C@H]1c1ccccc1Cl` [Example 10, ((2S, 3 S)-3-(2-chlorophenyl)-1,4-dioxaspiro[4,4]nonan-2-yl)methyl sulfamate], the responders at 30 mg/kg came out at 66%.

The same assay, now with this note: Mus musculus, injection amount 50 mg/kg, 3 mice, read-out: mMES(po) Protection %.
Consider `NS(=O)(=O)OC[C@@H]1OC2(CCCCC2)O[C@H]1c1ccccc1` [Example 112, ((2S, 3S)-3-phenyl-1,4-dioxaspiro[4,5]decan-2-yl)methyl sulfamate], for which the responders at 50 mg/kg amounted to 100%.

On to `NS(=O)(=O)OCC[C@@H]1OC2(CCCC2)O[C@H]1c1ccccc1` [Example 134, 2-((2S, 3S)-3-phenyl-1,4-dioxaspiro[4,4]nonan-2-yl)ethyl sulfamate], for which the responders at 50 mg/kg stood at 100%.

As to `CC1(C)O[C@H](COS(N)(=O)=O)[C@@H](Cc2ccccc2Cl)O1` [Example 146, ((4R, 5R)-5-(2-chlorobenzyl)-2,2-dimethyl-1,3-dioxolan-4-yl)methyl sulfamate], the responders at 50 mg/kg is 66.6%.

With `Nc1ccccc1[C@@H]1OC(c2ccccc2)O[C@H]1COS(N)(=O)=O` (stereo partly drawn) [Example 76, ((4S, 5S)-5-(2-aminophenyl)-2-phenyl-1,3-dioxolan-4-yl)methyl sulfamate], the responders at 50 mg/kg is 66%.

Turning to `CCC1(CC)O[C@H](CCOS(N)(=O)=O)[C@@H](Cc2ccccc2Cl)O1` [Example 140, 2-((4R, 5R)-5-(2-chlorobenzyl)-2,2-diethyl-1,3-dioxolan-4-yl)ethyl sulfamate], the responders at 50 mg/kg came to 33.3%.

For `CCC1(CC)O[C@@H](COS(N)(=O)=O)[C@H](c2ccccc2N)O1` [Example 70, ((4S, 5S)-5-(2-aminophenyl)-2,2-diethyl-1,3-dioxolan-4-yl)methyl sulfamate], the responders at 50 mg/kg was determined as 100%.

Regarding `CC1(C)O[C@H](COS(N)(=O)=O)[C@@H](Cc2ccccc2)O1` [Example 122, ((4R, 5R)-5-benzyl-2,2-dimethyl-1,3-dioxolan-4-yl)methyl sulfamate], the responders at 50 mg/kg turned out to be 100%.

On to `NS(=O)(=O)OC[C@H]1OC2(CCCCC2)O[C@@H]1Cc1ccccc1Cl` [Example 152, ((2R, 3R)-3-(2-chlorobenzyl)-1,4-dioxaspiro[4,5]decan-2-yl)methyl sulfamate], for which the responders at 50 mg/kg was 66.6%.

For the compound `NS(=O)(=O)OCC[C@@H]1OC2(CCCC2)O[C@H]1c1ccccc1Cl` [Example 158, 2-((2S, 3S)-3-(2-chlorophenyl)-1,4-dioxaspiro[4,4]nonan-2-yl)ethyl sulfamate], the responders at 50 mg/kg was determined as 100%.

Consider `CC1O[C@@H](COS(N)(=O)=O)[C@H](c2ccccc2Cl)O1` (stereo partly drawn) [Example 6, ((4S, 5S)-5-(2-chlorophenyl)-2-methyl-1,3-dioxolan-4-yl)methyl sulfamate], for which the responders at 50 mg/kg worked out at 33%.

As to `CC1(C)O[C@@H](COS(N)(=O)=O)[C@H](c2c(Cl)cccc2Cl)O1` [Example 52, ((4S, 5S)-5-(2,6-dichlorophenyl)-2,2-dimethyl-1,3-dioxolan-4-yl)methyl sulfamate], the responders at 50 mg/kg is 100%.

On to `Cc1ccccc1[C@@H]1OC(C)(C)O[C@H]1COS(N)(=O)=O` [Example 92, ((4S, 5S)-5-(2-methylphenyl)-2,2-dimethyl-1,3-dioxolan-4-yl)methyl sulfamate], for which the responders at 50 mg/kg was 100%.

For `CCC1(CC)O[C@H](COS(N)(=O)=O)[C@@H](Cc2ccccc2Cl)O1` [Example 148, ((4R, 5R)-5-(2-chlorobenzyl)-2,2-diethyl-1,3-dioxolan-4-yl)methyl sulfamate], the responders at 50 mg/kg was 33.3%.

Consider `CNc1ccccc1[C@@H]1OC(C)(C)O[C@H]1COS(=O)(=O)NC` [Example 104, ((4S, 5S)-5-(2-methylaminophenyl)-2,2-dimethyl-1,3-dioxolan-4-yl)methyl methylsulfamate], for which the responders at 50 mg/kg was found to be 66.6%.

Take `NS(=O)(=O)OCC[C@@H]1OC2(CCCCC2)O[C@H]1c1ccccc1` [Example 136, 2-((2S, 3S)-3-phenyl-1,4-dioxaspiro[4,5]decan-2-yl)ethyl sulfamate]: the responders at 50 mg/kg amounted to 100%.

Still in this assay, the particulars now being: Mus musculus, injection amount 50 mg/kg, 4 mice, read-out: mMES(po) Protection %.
Turning to `CCC1(CC)O[C@@H](COS(N)(=O)=O)[C@H](c2ccccc2Cl)O1` [Example 8, ((4S, 5S)-5-(2-chlorophenyl)-2,2-diethyl-1,3-dioxolan-4-yl)methyl sulfamate], the responders at 50 mg/kg was found to be 100%.

For the compound `NS(=O)(=O)OC[C@@H]1OC2(CCCCC2)O[C@H]1c1ccccc1Cl` [Example 12, ((2S, 3S)-3-(2-chlorophenyl)-1,4-dioxaspiro[4,5]decan-2-yl)methyl sulfamate], the responders at 50 mg/kg turned out to be 100%.

Staying with this assay, now noted: Mus musculus, injection amount 80 mg/kg, 3 mice, read-out: mMES(po) Protection %.
Turning to `CCC1(CC)O[C@@H](CCOS(N)(=O)=O)[C@H](c2ccccc2)O1` [Example 132, 2-((4S, 5S)-5-phenyl-2,2-diethyl-1,3-dioxolan-4-yl)ethyl sulfamate], the responders at 80 mg/kg is 33.3%.

Regarding `CCC1(CC)O[C@@H](CCOS(N)(=O)=O)[C@H](c2ccccc2Cl)O1` [Example 156, 2-((4S, 5S)-5-(2-chlorophenyl)-2,2-diethyl-1,3-dioxolan-4-yl)ethyl sulfamate], the responders at 80 mg/kg was determined as 100%.

For the compound `CC1(C)O[C@H](CCOS(N)(=O)=O)[C@@H](Cc2ccccc2)O1` [Example 114, 2-((4R, 5R)-5-benzyl-2,2-dimethyl-1,3-dioxolan-4-yl)ethyl sulfamate], the responders at 80 mg/kg came out at 33.3%.

For `NS(=O)(=O)OCC[C@H]1OC2(CCCC2)O[C@@H]1Cc1ccccc1Cl` [Example 142, 2-((2R, 3R)-3-(2-chlorobenzyl)-1,4-dioxaspiro[4,4]nonan-2-yl)ethyl sulfamate], the responders at 80 mg/kg amounted to 33.3%.

Regarding `NS(=O)(=O)OCC[C@H]1OC2(CCCC2)O[C@@H]1Cc1ccccc1` [Example 118, 2-((2R, 3R)-3-benzyl-1,4-dioxaspiro[4,4]nonan-2-yl)ethyl sulfamate], the responders at 80 mg/kg came to 66.6%.

In the case of `NS(=O)(=O)OCC[C@@H]1OC2(CCCCC2)O[C@H]1c1ccccc1Cl` [Example 160, 2-((2S, 3S)-3-(2-chlorophenyl)-1,4-dioxaspiro[4,5]decan-2-yl)ethyl sulfamate], the responders at 80 mg/kg was determined as 66.6%.

The same assay, now with this note: Mus musculus, injection amount 100 mg/kg, 3 mice, read-out: mMES(po) Protection %.
Consider `CC1(C)OC(COS(N)(=O)=O)C(c2ccncc2Cl)O1` (centres unmarked) [Example 173, (5-(3-chloropyridin-4-yl)-2,2-dimethyl-1,3-dioxolan-4-yl)methylsulfamate], for which the responders at 100 mg/kg was 100%.

`CC1(C)O[C@H](COS(N)(=O)=O)[C@H](c2ccccc2Cl)O1` [Example 161, ((4R, 5S)-5-(2-chlorophenyl)-2,2-dimethyl-1,3-dioxolan-4-yl)methyl sulfamate]: the responders at 100 mg/kg turned out to be 100%.

Take `CC1(C)OC(COS(N)(=O)=O)C(c2cncnc2)O1` (centres unmarked) [Example 175]: the responders at 100 mg/kg was 100%.

For `CC1(C)OC(COS(N)(=O)=O)C(c2cnc(Cl)nc2)O1` (centres unmarked) [Example 176, (2,2-dimethyl-5-(2-chloropyrimidin-5-yl)-1,3-dioxolan-4-yl)methylsulfamate], the responders at 100 mg/kg was determined as 100%.

As for `Cc1nc(Cl)sc1[C@@H]1OC(C)(C)O[C@H]1COS(N)(=O)=O` [Example 170, ((4S, 5R)-2,2-dimethyl-5-(2-chloro-4-methylthiazol-5-yl)-1,3-dioxolan-4-yl)methylsulfamate], the responders at 100 mg/kg was determined as 100%.

Still in this assay, the particulars now being: Mus musculus, injection amount 150 mg/kg, 3 mice, read-out: mMES(po) Protection %.
In the case of `CCC1(CC)O[C@H](CCOS(N)(=O)=O)[C@@H](Cc2ccccc2)O1` [Example 116, 2-((4R, 5R)-5-benzyl-2,2-diethyl-1,3-dioxolan-4-yl)ethyl sulfamate], the responders at 150 mg/kg turned out to be 33.3%.

The assay is the same for the next values; noted with them: Mus musculus, mice, at peak time.
`CC1(C)OC(COS(N)(=O)=O)C(c2ccccc2Cl)O1` (mixture of isomers) [Example 3, (5-(2-chlorophenyl)-2,2-dimethyl-1,3-dioxolan-4-yl)methyl sulfamate(SS & RR mixture)] came in with an ED50 of 14 mg/kg.

`CC1(C)O[C@H](c2ccccc2I)[C@@H](COS(N)(=O)=O)O1` [Example 27, ((4R, 5R)-5-(2-iodophenyl)-2,2-dimethyl-1,3-dioxolan-4-yl)methyl sulfamate]: the median effective dose (ED50) stood at 27.6 mg/kg.

Regarding `CC1(C)O[C@@H](COS(N)(=O)=O)[C@H](c2ccsc2)O1` [Example 171, ((4S, 5S)-2,2-dimethyl-5-(thiophen-3-yl)-1,3-dioxolan-4-yl)methylsulfamate], the median effective dose (ED50) was determined as 43.3 mg/kg.
